According to US12049486B2, “PAC1 receptor agonists (MAXCAPs) and uses thereof” (priority 2017, dated 2024):
Where no end group is shown, it is not given here.

Assay: Hepatic fat / liver cirrhosis, NASH/NAFLD by H&E staining in DIO WT mice
Type: in vivo
Conditions: versus vehicle
Excerpt: We have shown that these novel MAXCAP compounds, that are PAC1 specific agonists, can potentially treat Nonalcoholic steatohepatitis (NASH), non-alcoholic […] (NAFLD) and liver fibrosis. We injected these MAXCAP compounds in DIO WT mice and measured hepatic fat in the liver (see, e.g., FIG. 5).

## Pituitary Adenylate Cyclase Activating Polypeptide (HSDGIFTDSYSRYRKQMAVKKYLAAVLGKRYKQRVKNK; ends and bridges not checked; listed as Homo sapiens) [PACAP, native peptide]
  liver cirrhosis and NASH/NAFLD: significant reduction in liver cirrhosis and NASH/NAFLD
